According to ChEMBL document CHEMBL5729568, “Ras inhibitors” (2023):

Legend:
[1] = (§1) Biochemical Assay: A variety of Ras proteins may be inhibited by compounds of the present invention (e.g., K-Ras, N-Ras, H-Ras, and mutants thereof at positions 12, 13 and 61, such as G12C, G12D, G12V, G12S, G13C, G13D, and Q61L, and others described herein). The purpose of this biochemical assay is to measure the ability of test compounds to covalently label nucleotide-loaded K-Ras isoforms. […] The sample is incubated at 25? C. for a time period of up to 24 hours prior to quenching by the addition of 10 uL of 5% Formic Acid. Quenched samples are centrifuged at 15000 rpm for 15 minutes in a benchtop centrifuge before injecting a 10 uL aliquot onto a reverse phase C4 column and eluting into the mass spectrometer with an increasing acetonitrile gradient in the mobile phase. Analysis of raw data may be carried out using Waters MassLynx MS software, with % bound calculated from the deconvoluted protein peaks for labeled and unlabeled K-Ras.
[2] = as §1; remark: listed apart in the source
[3] = as §1; remark: listed apart in the source
[4] = as §1; remark: listed apart in the source
[5] = as §1; remark: listed apart in the source

Row | SMILES | IC50 [1] | IC50 [2] | IC50 [3] | IC50 [4] | IC50 [5]
1 | C=CC(=O)N1CC[C@H](C(=O)N(C)[C@H](C(=O)N[C@H]2Cc3cc(O)cc(c3)-c3cc(F)c4c(c3)c(c(-c3ccccc3CCOC)n4CC)CC(C)(C)COC(=O)[C@@H]3CCCN(N3)C2=O)C(C)C)C1 | in the range around 5.5 µM |  |  |  | 
2 | C=CC(=O)N1CC2(CCN([C@H](C(=O)N[C@H]3Cc4cc(O)cc(c4)-c4ccc5c(c4)c(c(-c4ccccc4CCOC)n5CC)CC(C)(C)COC(=O)[C@@H]4CCCN(N4)C3=O)C(C)C)C2=O)C1 |  | in the range around 5.5 µM |  |  | 
3 | C=CC(=O)Nc1cnc(C(=O)N(C)[C@H](C(=O)N[C@H]2Cc3cccc(c3)-c3ccc4c(c3)c(c(-c3cccnc3C(C)OC)n4CC)CC(C)(C)COC(=O)[C@@H]3CCCN(N3)C2=O)C(C)C)n1C (stereo not given in full) | in the range around 5.5 µM | in the range around 5.5 µM | in the range around 5.5 µM | in the range around 55 nM | in the range around 55 nM
4 | C=CC(=O)N1CC[C@]2(CCN(C(=O)N(C)[C@H](C(=O)N[C@@H]3Cc4cc(O)cc(c4)-c4ccc5c(c4)c(c(-c4ccccc4CCOC)n5CC)CC(C)(C)COC(=O)[C@@H]4CCCN(N4)C3=O)C(C)C)C2=O)C1 | in the range around 5.5 µM | in the range around 5.5 µM |  | in the range around 550 nM | 
5 | CCn1c(-c2cccnc2C(C)OC)c2c3cc(ccc31)-c1cc(O)cc(c1)C[C@H](NC(=O)[C@H](C(C)C)N(C)C(=O)c1ncc(NC(=O)/C=C/CN(C)C)n1C)C(=O)N1CCC[C@H](N1)C(=O)OCC(C)(C)C2 (stereo not given in full) | in the range around 0.55 µM | in the range around 0.55 µM | in the range around 0.55 µM | < 10 nM | < 10 nM
6 | CCn1c(-c2cccnc2C(C)OC)c2c3cc(ccc31)-c1cccc(c1)C[C@H](NC(=O)[C@H](C(C)C)N(C)C(=O)[C@H]1CCN(C(=O)/C=C/C(F)F)C1)C(=O)N1CCC[C@H](N1)C(=O)OCC(C)(C)C2 (stereo not given in full) | in the range around 5.5 µM | in the range around 5.5 µM | in the range around 5.5 µM | in the range around 550 nM | in the range around 55 nM
7 | CCn1c(-c2cnccc2COC)c2c3cc(ccc31)-c1cc(O)cc(c1)C[C@H](NC(=O)[C@H](C(C)C)N(C)C(=O)[C@H]1CCN(C(=O)C#CCN(C)C)C1)C(=O)N1CCC[C@H](N1)C(=O)OCC(C)(C)C2 (atropisomer, axis not shown) |  |  |  | < 10 nM | < 10 nM
8 | C=CC(=O)N1CC(OCC(C(=O)N[C@H]2Cc3cccc(c3)-c3ccc4c(c3)c(c(-c3cccnc3C(C)OC)n4CC)CC(C)(C)COC(=O)[C@@H]3CCCN(N3)C2=O)C(C)C)C1 (stereo not given in full) |  | > 10 µM |  | in the range around 5500 nM | in the range around 5500 nM
9 | CCn1c(-c2cccnc2C(C)OC)c2c3cc(ccc31)-c1cccc(c1)C[C@H](NC(=O)[C@H](C(C)C)N(C)C(=O)[C@H]1CCN(C(=O)/C=C/CF)C1)C(=O)N1CCC[C@H](N1)C(=O)OCC(C)(C)C2 (stereo not given in full) | in the range around 5.5 µM | in the range around 5.5 µM | in the range around 5.5 µM | in the range around 550 nM | in the range around 550 nM
10 | CCn1c(-c2cccnc2C(C)OC)c2c3cc(ccc31)-c1cccc(c1)C[C@H](NC(=O)[C@H](C(C)C)N(C)C(=O)[C@H]1CCN(C(=O)C#C[C@@H]3COCCN3C)C1)C(=O)N1CCC[C@H](N1)C(=O)OCC(C)(C)C2 (stereo not given in full) | in the range around 5.5 µM | in the range around 5.5 µM | > 10 µM | in the range around 5500 nM | in the range around 55 nM
11 | C=CC(=O)N1CC(OCC(C(=O)N[C@H]2Cc3cc(cc(C(F)F)c3)-c3ccc4c(c3)c(c(-c3cccnc3C(C)OC)n4CC)CC(C)(C)COC(=O)[C@@H]3CCCN(N3)C2=O)C(C)C)C1 (stereo not given in full) | > 10 µM | > 10 µM | > 10 µM | > 10000 nM | > 10000 nM
12 | C=CC(=O)N1CC(OCC(C(=O)N[C@H]2Cc3cc(cc(C(F)F)c3)-c3ccc4c(c3)c(c(-c3cccnc3C(C)OC)n4CC(F)(F)F)CC(C)(C)COC(=O)[C@@H]3CCCN(N3)C2=O)C(C)C)C1 (stereo not given in full) | > 10 µM | > 10 µM | > 10 µM | > 10000 nM | > 10000 nM
13 | C=CC(=O)N1CC[C@H](C(=O)N(C)[C@H](C(=O)N[C@H]2Cc3cc(O)cc(c3)-c3ccc4c(c3)c(c(-c3ccncc3CCOC)n4CC)CC(C)(C)COC(=O)[C@@H]3CCCN(N3)C2=O)C(C)C)C1 | in the range around 0.55 µM | in the range around 0.55 µM |  | in the range around 550 nM | 
14 | C=CC(=O)N1CC[C@H](C(=O)N(C)[C@H](C(=O)N[C@H]2Cc3cc(OC(=O)CCC(=O)O)cc(c3)-c3ccc4c(c3)c(c(-c3ccccc3CCOC)n4CC)CC(C)(C)COC(=O)[C@@H]3CCCN(N3)C2=O)C(C)C)C1 | in the range around 0.55 µM | in the range around 5.5 µM |  | in the range around 5500 nM | 
15 | C=CC(=O)N1CC[C@H](C(=O)N(C)[C@H](C(=O)N[C@H]2Cc3cc(O)cc(c3)-c3ccc4c(c3)c(c(-c3ccccc3CO)n4CC)CC(C)(C)COC(=O)[C@@H]3CCCN(N3)C2=O)C(C)C)C1 | in the range around 0.55 µM | in the range around 0.55 µM |  | in the range around 5500 nM | 
16 | C=CC(=O)N1CC[C@H](C(=O)N(C)[C@H](C(=O)N[C@H]2Cc3cc(OC(=O)NCC(=O)O)cc(c3)-c3ccc4c(c3)c(c(-c3ccccc3CCOC)n4CC)CC(C)(C)COC(=O)[C@@H]3CCCN(N3)C2=O)C(C)C)C1 | in the range around 5.5 µM | in the range around 5.5 µM |  | in the range around 550 nM | 
17 | C=CC(=O)N1CC[C@H](C(=O)N(C)[C@H](C(=O)N[C@H]2Cc3cc(O)cc(c3)-c3ccc4c(c3)c(c(-c3cnccc3[C@H](C)OC)n4CC)CC(C)(C)COC(=O)[C@@H]3CCCN(N3)C2=O)C(C)C)C1 | in the range around 0.055 µM | in the range around 0.055 µM | in the range around 0.055 µM | in the range around 55 nM | 
18 | CCn1c(-c2ccccc2CCOC)c2c3cc(ccc31)-c1cc(O)cc(c1)C[C@H](NC(=O)[C@H](C(C)C)N(C)C(=O)[C@H]1CCN(C(=O)/C=C/CN(C)C)C1)C(=O)N1CCC[C@H](N1)C(=O)OCC(C)(C)C2 | in the range around 0.55 µM | in the range around 0.55 µM |  | in the range around 5500 nM | 
19 | CCn1c(-c2cccnc2[C@H](C)OC)c2c3cc(ccc31)-c1cc(O)cc(c1)C[C@H](NC(=O)[C@H](C(C)C)N(C)C(=O)c1nc(NC(=O)/C=C/CN(C)C)cs1)C(=O)N1CCC[C@H](N1)C(=O)OCC(C)(C)C2 |  | in the range around 5.5 µM | in the range around 5.5 µM | in the range around 55 nM | 
20 | C=CC(=O)C1C[C@@H](C(=O)N(C)[C@H](C(=O)N[C@@H]2Cc3cc(O)cc(c3)-c3cnc4c(c3)c(c(-c3ccccc3CCOC)n4CC)CC(C)(C)COC(=O)[C@@H]3CCCN(N3)C2=O)C(C)C)CN1 (stereo not given in full) | in the range around 5.5 µM | in the range around 5.5 µM |  |  | in the range around 5500 nM
